Experimental data from article PMC10481364 (The Journal of Biological Chemistry, 2023).
“And” between values parts separate entries of the source, which are not always exact repeats. Equal entries are not always repeated.

What was measured:
FMND/CYP2D6 = assay type: binding, human; conditions: difference spectra, FMND/CYP2D6 fusion, FMN domain oxidized
CYP2D6 = CYP2D6 (Homo sapiens, UniProt P10635); assay: UV-visible spectral ligand binding assay, isolated CYP2D6; conditions: difference spectra
CYP17A1 = biological target: T1, CYP17A1 (Homo sapiens, UniProt P05093); assay: UV-visible spectral ligand binding assay, isolated CYP17A1; conditions: difference spectra
T1 sequence (P05093 with tags, fused parts or gaps): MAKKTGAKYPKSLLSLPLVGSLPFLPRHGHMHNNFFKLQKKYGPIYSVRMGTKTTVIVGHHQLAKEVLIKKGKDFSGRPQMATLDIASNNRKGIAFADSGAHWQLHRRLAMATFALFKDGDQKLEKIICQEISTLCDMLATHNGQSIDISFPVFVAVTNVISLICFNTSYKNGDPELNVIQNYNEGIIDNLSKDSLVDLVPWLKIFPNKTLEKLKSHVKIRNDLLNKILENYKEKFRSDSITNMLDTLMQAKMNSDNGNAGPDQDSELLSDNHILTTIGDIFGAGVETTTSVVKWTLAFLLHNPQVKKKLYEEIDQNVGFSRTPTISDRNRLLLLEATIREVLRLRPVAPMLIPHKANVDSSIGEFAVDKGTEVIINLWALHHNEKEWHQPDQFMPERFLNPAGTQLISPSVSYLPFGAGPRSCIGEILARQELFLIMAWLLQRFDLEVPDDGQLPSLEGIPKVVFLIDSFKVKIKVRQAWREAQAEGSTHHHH

FMND/CYP17A1 [1] = biological target: T2, FMND/CYP17A1 (Homo sapiens, UniProt P05093+P16435); assay type: binding
T2 sequence (P16435+P05093 with tags, fused parts or gaps): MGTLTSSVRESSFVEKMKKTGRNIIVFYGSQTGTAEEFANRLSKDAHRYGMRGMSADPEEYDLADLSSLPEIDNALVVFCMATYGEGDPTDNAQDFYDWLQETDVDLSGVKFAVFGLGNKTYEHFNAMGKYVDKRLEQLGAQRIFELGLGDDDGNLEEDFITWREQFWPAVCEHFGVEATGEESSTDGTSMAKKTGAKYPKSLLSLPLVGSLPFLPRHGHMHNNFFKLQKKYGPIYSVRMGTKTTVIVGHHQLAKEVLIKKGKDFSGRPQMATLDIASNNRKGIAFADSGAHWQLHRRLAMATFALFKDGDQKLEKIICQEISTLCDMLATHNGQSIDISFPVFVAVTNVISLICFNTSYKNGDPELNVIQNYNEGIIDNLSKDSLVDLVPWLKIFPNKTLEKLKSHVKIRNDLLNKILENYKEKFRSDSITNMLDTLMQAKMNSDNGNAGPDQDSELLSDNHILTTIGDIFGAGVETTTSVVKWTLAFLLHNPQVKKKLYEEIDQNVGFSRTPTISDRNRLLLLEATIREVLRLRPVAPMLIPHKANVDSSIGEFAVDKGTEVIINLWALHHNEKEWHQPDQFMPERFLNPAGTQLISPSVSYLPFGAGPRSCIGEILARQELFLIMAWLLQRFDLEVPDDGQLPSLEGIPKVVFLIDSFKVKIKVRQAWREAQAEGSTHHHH

CYP21A2 = biological target: T3, CYP21A2 (Homo sapiens, UniProt P08686, R103K); assay: UV-visible spectral ligand binding assay, isolated CYP21A2; conditions: difference spectra
T3 sequence (P08686 with tags, fused parts or gaps R103K limits assumed): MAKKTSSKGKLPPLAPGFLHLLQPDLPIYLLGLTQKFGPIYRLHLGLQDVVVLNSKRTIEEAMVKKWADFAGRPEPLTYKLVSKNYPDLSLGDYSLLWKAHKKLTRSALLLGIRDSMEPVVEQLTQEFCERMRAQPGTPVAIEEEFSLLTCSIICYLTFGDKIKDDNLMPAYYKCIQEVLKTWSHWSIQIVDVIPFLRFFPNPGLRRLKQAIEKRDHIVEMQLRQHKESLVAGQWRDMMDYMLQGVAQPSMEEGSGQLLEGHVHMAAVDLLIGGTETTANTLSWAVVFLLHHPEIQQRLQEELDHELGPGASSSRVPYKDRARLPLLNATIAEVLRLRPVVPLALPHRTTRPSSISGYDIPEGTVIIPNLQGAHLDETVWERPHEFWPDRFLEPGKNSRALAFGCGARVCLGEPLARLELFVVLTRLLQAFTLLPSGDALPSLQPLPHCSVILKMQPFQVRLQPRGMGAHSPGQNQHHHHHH

FMND/CYP21A2 [2] = biological target: T4, FMND/CYP21A2 (Homo sapiens, UniProt P08686+P16435, R103K); assay type: binding
T4 sequence (P16435+P08686 with tags, fused parts or gaps P08686:R103K): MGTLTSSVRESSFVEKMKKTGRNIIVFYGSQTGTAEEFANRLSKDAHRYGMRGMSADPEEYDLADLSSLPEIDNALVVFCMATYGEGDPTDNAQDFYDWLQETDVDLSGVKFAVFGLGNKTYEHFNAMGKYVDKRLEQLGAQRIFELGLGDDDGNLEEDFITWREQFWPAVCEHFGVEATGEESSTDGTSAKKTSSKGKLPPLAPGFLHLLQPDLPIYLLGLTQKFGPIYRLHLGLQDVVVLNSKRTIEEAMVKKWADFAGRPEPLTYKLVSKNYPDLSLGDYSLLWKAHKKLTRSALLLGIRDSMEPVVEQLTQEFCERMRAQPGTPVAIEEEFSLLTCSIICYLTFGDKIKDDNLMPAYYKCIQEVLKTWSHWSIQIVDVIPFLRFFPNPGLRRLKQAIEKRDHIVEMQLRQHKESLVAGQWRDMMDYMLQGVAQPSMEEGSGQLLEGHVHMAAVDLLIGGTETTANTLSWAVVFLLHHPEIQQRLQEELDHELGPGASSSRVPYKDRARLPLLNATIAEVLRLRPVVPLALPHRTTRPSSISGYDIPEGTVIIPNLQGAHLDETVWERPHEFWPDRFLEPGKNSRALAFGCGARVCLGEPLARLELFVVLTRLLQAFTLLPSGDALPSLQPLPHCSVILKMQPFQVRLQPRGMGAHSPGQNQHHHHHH

FMND/CYP21A2 [3] = biological target: T4, FMND/CYP21A2; assay type: biochemical; conditions: progesterone 21-hydroxylation, cumene hydroperoxide, FMND/CYP21A2 vs CYP21A2
FMND/CYP17A1 [4] = biological target: T2, FMND/CYP17A1; assay type: biochemical; conditions: progesterone 17α-hydroxylation, cumene hydroperoxide
[5] = FMND/CYP17A1 compared with CYP17A1
[6] = FMND/CYP21A2 compared with CYP21A2

Structure (SMILES)	spectral shift (binding mode) (FMND/CYP2D6)	spectral shift (binding mode) (CYP2D6)	spectral shift (binding mode) (CYP17A1)	increase in affinity by FMN domain fusion (FMND/CYP17A1 [1]; [5]) [%]	increase in overall binding efficiency (ΔAmax/Kd) by FMN domain fusion (FMND/CYP17A1 [1]; [5]) [%]	spectral shift (binding mode) (FMND/CYP17A1 [1]; difference spectra, FMND/CYP17A1 fusion, FMN domain oxidized)	spectral shift (binding mode) (CYP21A2)	decrease in total / maximal absorbance change (ΔAmax) by FMN domain fusion (FMND/CYP21A2 [2]; [6])	effect of FMN domain fusion on the affinity, in words (FMND/CYP21A2 [2]; [6])	spectral shift (binding mode) (FMND/CYP21A2 [2]; difference spectra, FMND/CYP21A2 fusion, FMN domain oxidized)	effect on catalytic efficiency, in words (FMND/CYP21A2 [3])	increase in kcat by FMN domain fusion (FMND/CYP21A2 [3]) [%]	steady-state kinetics, saturation (FMND/CYP17A1 [4]; CYP17A1 and FMND/CYP17A1)	trend of the FMN domain effect on kcat and Km, in words (FMND/CYP17A1 [4]; FMND/CYP17A1 vs CYP17A1, poorly defined)
CC1(C)SCCN(S(=O)(=O)c2ccc(Oc3ccncc3)cc2)[C@H]1C(=O)NO [prinomastat]	type II	type II												
CC(=O)[C@H]1CC[C@H]2[C@@H]3CCC4=CC(=O)CC[C@]4(C)[C@H]3CC[C@]12C [progesterone]			type I	17	38	type I	type I	31% and 30%	without substantially altering	type I	unchanged	17	saturation could not be reached	increase kcat as well as Km
